Results: US20240158446A1, “CYCLIC COMPOUND HAVING SELECTIVE INHIBITORY ACTION ON KRAS OVER HRAS AND NRAS” (CHUGAI SEIYAKU KABUSHIKI KAISHA, priority 2021, published 2024)
pKd: −log10 of the molar value. Like-named read-outs stand apart in the source and are kept apart here. Where a SMILES comes first, the peptide text is derived from it. Bridges are numbered along the chain shown (N, C = ends). [ ]: non-standard residue; d: D form. The star is where a group is joined. hPhe(3-Cl-4-CF3) = N[C@@H](CCc1ccc(C(F)(F)F)c(Cl)c1)C(=O)O; NPrPhe(4-CF3) = CCCN[C@@H](Cc1ccc(C(F)(F)F)cc1)C(=O)O; NEtPhe(4-Me) = CCN[C@@H](Cc1ccc(C)cc1)C(=O)O; NMeGly(cPent) = CN[C@H](C(=O)O)C1CCCC1; Pro(4,4-F2) = O=C(O)[C@@H]1CC(F)(F)CN1; Hyp = O=C(O)[C@@H]1C[C@@H](O)CN1; NMeD = CN[C@@H](CC(=O)O)C(=O)O; NMeL = CN[C@@H](CC(C)C)C(=O)O; Morpholide = C1CN(*)CCO1; Ac5c = NC1(C(=O)O)CCCC1; Aze = O=C(O)[C@@H]1CCN1; Sar = CNCC(=O)O

How the values were obtained:
[1] = target: GDP-bound KRAS wild-type protein (Homo sapiens, UniProt P01116); assay: Binding to KRAS by surface plasmon resonance (SPR), Single Cycle Kinetics; settings: GDP-bound KRAS wild-type protein, read-out: KRAS KD
[2] = target: GDP-bound NRAS wild-type protein (Homo sapiens, UniProt P01111); assay: Binding to NRAS by surface plasmon resonance (SPR), Single Cycle Kinetics; settings: for NRAS/KRAS (ratio of KD value with respect to GDP-bound NRAS wild-type protein to KD value with respect to KRAS): SPR KD ratio NRAS/KRAS, class symbols; for NRAS/KRAS (ratio of KD value with respect to NRAS to KD value with respect to KRAS) / NRAS/KRAS (ratio of KD value for NRAS to KD value for KRAS): SPR, GDP-bound NRAS wild-type protein vs GDP-bound KRAS wild-type protein
[3] = target: GDP-bound HRAS wild-type protein (Homo sapiens, UniProt P01112); assay: Binding to HRAS by surface plasmon resonance (SPR), Single Cycle Kinetics; settings: for HRAS/KRAS (ratio of KD value with respect to GDP-bound HRAS wild-type protein to KD value with respect to KRAS): SPR KD ratio HRAS/KRAS, class symbols; for HRAS/KRAS (ratio of KD value with respect to HRAS to KD value with respect to KRAS) / HRAS/KRAS (ratio of KD value for HRAS to KD value for KRAS): SPR, GDP-bound HRAS wild-type protein vs GDP-bound KRAS wild-type protein
[4] = SPR Single Cycle Kinetics, 1:1 binding model

GDP-bound HRAS wild-type protein, sequence (P01112 whole entry): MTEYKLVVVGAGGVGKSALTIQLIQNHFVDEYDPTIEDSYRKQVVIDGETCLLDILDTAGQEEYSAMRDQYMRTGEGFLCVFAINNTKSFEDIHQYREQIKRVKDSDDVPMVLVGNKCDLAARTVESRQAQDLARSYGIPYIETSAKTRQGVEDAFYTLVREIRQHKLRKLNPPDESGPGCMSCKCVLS
GDP-bound NRAS wild-type protein, sequence (P01111 whole entry): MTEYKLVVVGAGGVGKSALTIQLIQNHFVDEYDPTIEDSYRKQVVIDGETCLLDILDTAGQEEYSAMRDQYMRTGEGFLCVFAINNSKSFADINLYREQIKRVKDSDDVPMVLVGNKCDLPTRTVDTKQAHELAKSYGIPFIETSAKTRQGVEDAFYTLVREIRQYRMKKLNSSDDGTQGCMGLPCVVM
GDP-bound KRAS wild-type protein, sequence (P01116 whole entry): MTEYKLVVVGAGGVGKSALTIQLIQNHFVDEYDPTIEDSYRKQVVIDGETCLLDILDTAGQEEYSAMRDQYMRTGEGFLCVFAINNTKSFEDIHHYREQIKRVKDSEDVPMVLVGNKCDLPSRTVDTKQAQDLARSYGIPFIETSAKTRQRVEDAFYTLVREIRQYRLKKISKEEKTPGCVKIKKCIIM

Row | SMILES | pKd [1, 4] | pKd ([1]; SPR, Single Cycle Kinetics) | NRAS/KRAS (ratio of KD value with respect to GDP-bound NRAS wild-type protein to KD value with respect to KRAS) [2] | HRAS/KRAS (ratio of KD value with respect to GDP-bound HRAS wild-type protein to KD value with respect to KRAS) [3] | NRAS/KRAS (ratio of KD value with respect to NRAS to KD value with respect to KRAS) [2] | HRAS/KRAS (ratio of KD value with respect to HRAS to KD value with respect to KRAS) [3] | NRAS/KRAS (ratio of KD value for NRAS to KD value for KRAS) [2] | HRAS/KRAS (ratio of KD value for HRAS to KD value for KRAS) [3]
1 | CCCN1C(=O)CN(C)C(=O)CN(C)C(=O)[C@H]([C@@H](C)CC)NC(=O)[C@H](CC(C)C)N(C)C(=O)C[C@@H](C(=O)N(C)C)N(C)C(=O)[C@H](C2CCCC2)N(C)C(=O)C2(CCCC2)NC(=O)[C@@H]2CC(F)(F)CN2C(=O)[C@H](CCc2ccc(C(F)(F)F)c(Cl)c2)NC(=O)CN(C)C(=O)[C@@H]1Cc1ccc(C(F)(F)F)cc1 [PP0413] ([NMeL]I[Sar][Sar][NPrPhe(4-CF3)][Sar][hPhe(3-Cl-4-CF3)][Pro(4,4-F2)][Ac5c][NMeGly(cPent)][NMeD]-NMe2; lactam N-11) | 10.31 | – | – | – | C (A compound having a KD ratio of 0.1 or more and less than 3 is denoted as C) | C (A compound having a KD ratio of 0.1 or more and less than 3 is denoted as C) | – | –
2 | CC[C@H](C)[C@@H]1NC(=O)[C@H](CC(C)C)N(C)C(=O)C[C@@H](C(=O)N2CCC2)N(C)C(=O)[C@H](C2CCCC2)N(C)C(=O)C2(CCCC2)NC(=O)[C@@H]2CCCN2C(=O)[C@H](CCc2cc(F)c(C(F)(F)F)c(F)c2)NC(=O)CN(C)C(=O)[C@H](Cc2ccc(C(F)(F)F)cc2)N2CCCC[C@@H](C2=O)N(C)C(=O)CN(C)C1=O [PP0570] | 10.34 | – | – | – | B (a compound having 3 or more and less than 10 is denoted as B) | B (a compound having 3 or more and less than 10 is denoted as B) | – | –
3 | CCO[C@@H]1C[C@H]2C(=O)NC3(CCCC3)C(=O)N(C)[C@@H](C3CCCC3)C(=O)N(C)[C@H](C(=O)N3CCOCC3)CC(=O)N(C)[C@@H](CC(C)C)C(=O)N[C@@H]([C@@H](C)CC)C(=O)N(C)CC(=O)N(C)CC(=O)N(CC)[C@@H](Cc3ccc(C)cc3)C(=O)N(C)CC(=O)N[C@@H](CCc3ccc(C(F)(F)F)c(Cl)c3)C(=O)N2C1 [PP0042] ([NMeL]I[Sar][Sar][NEtPhe(4-Me)][Sar][hPhe(3-Cl-4-CF3)][Hyp](Et)[Ac5c][NMeGly(cPent)][NMeD]-Morpholide; lactam N-11) | 9.92 | – | – | – | – | – | C (A compound having a KD ratio of 0.1 or more and less than 3 is denoted as C) | C (A compound having a KD ratio of 0.1 or more and less than 3 is denoted as C)
4 | CCCN1C(=O)CN(C)C(=O)[C@@H]2CCN2C(=O)[C@H]([C@@H](C)CC)NC(=O)[C@H](CC(C)C)N(C)C(=O)C[C@@H](C(=O)N2CCOCC2)N(C)C(=O)[C@H](C2CCCC2)N(C)C(=O)C2(CCCC2)NC(=O)CN(C)C(=O)[C@H](CCc2ccc(C(F)(F)F)c(Cl)c2)NC(=O)CN(C)C(=O)[C@@H]1Cc1ccc(C(F)(F)F)cc1 [PP0314] ([NMeL]I[Aze][Sar][NPrPhe(4-CF3)][Sar][hPhe(3-Cl-4-CF3)][Sar][Ac5c][NMeGly(cPent)][NMeD]-Morpholide; lactam N-11) | 8.80 | – | – | – | – | – | B (a compound having 3 or more and less than 10 is denoted as B) | C (A compound having a KD ratio of 0.1 or more and less than 3 is denoted as C)

Now from value to compound, other results behind:

Row | pKd [1, 4] | pKd ([1]; SPR, Single Cycle Kinetics) | SMILES | NRAS/KRAS (ratio of KD value with respect to GDP-bound NRAS wild-type protein to KD value with respect to KRAS) [2] | HRAS/KRAS (ratio of KD value with respect to GDP-bound HRAS wild-type protein to KD value with respect to KRAS) [3] | NRAS/KRAS (ratio of KD value with respect to NRAS to KD value with respect to KRAS) [2] | HRAS/KRAS (ratio of KD value with respect to HRAS to KD value with respect to KRAS) [3] | NRAS/KRAS (ratio of KD value for NRAS to KD value for KRAS) [2] | HRAS/KRAS (ratio of KD value for HRAS to KD value for KRAS) [3]
5 | 9.92 | – | CCO[C@@H]1C[C@H]2C(=O)NC3(CC(C)(C)C3)C(=O)N(C)[C@@H](C3CCCC3)C(=O)N(C)[C@H](C(=O)N(C)CC)CC(=O)N(C)[C@H]3CCC/C=C/c4ccc(cc4)C[C@@H](C(=O)N(C)CC(=O)N[C@@H](CCc4ccc(Cl)c(Cl)c4)C(=O)N2C1)N1CC/C=C\C[C@@H](C1=O)N(C)C(=O)CN(C)C(=O)[C@H]([C@@H](C)CC)NC3=O [PP2577] | A (a compound having 10 or more and less than 20 is denoted as A) | A (a compound having 10 or more and less than 20 is denoted as A) | – | – | – | –
6 | 9.41 | – | CCC(CC)[C@H]1C(=O)N(C)[C@H](C(=O)N(C)C)CC(=O)N(C)[C@@H](COC)C(=O)N[C@@H]([C@@H](C)CC)C(=O)N(C)CC(=O)N(C)[C@H]2C/C=C\CCN(C2=O)[C@@H](Cc2ccc(C)cc2)C(=O)N(C)CC(=O)N[C@@H](CCc2cc(F)c(C(F)(F)F)c(F)c2)C(=O)N2CC3(CC3)C[C@H]2C(=O)NC2(CC(C)(C)C2)C(=O)N1C [PP2963] | AA (a compound having 20 or more is denoted as AA) | A (a compound having 10 or more and less than 20 is denoted as A) | – | – | – | –
7 | – | 8.39 | CCC[C@H]1C(=O)N[C@@H]([C@@H](C)CC)C(=O)N2CCC[C@H]2C(=O)N(C)[C@H]2C/C=C\CCN(C2=O)[C@@H](CC2CCC(F)(F)CC2)C(=O)N(C)CC(=O)N[C@@H](CCc2ccc(C(F)(F)F)c(OC)c2)C(=O)N2C[C@H](OCC)C[C@H]2C(=O)N(C)C2(CCC2)C(=O)N(C)[C@@H](C(CC)CC)C(=O)N(C)[C@H](C(=O)N(C)C)CC(=O)N1C [PP2353] | – | – | – | – | A (a compound having 10 or more and less than 20 is denoted as A) | A (a compound having 10 or more and less than 20 is denoted as A)
